Data on two molecules can be found in patent publication US20220088011A1, “THERAPEUTIC AGENT FOR A TUMOR COMPRISING AN IDO INHIBITOR ADMINISTERED IN COMBINATION WITH AN ANTIBODY” (KYOWA KIRIN CO., LTD., priority 2015, published 2022).

In data set [1] the test system is TL-Om1 cells. The experiment in a line: ADCC of mogamulizumab against TL-Om1 cells by human PBMCs pre-incubated in conditioned medium. In kind it is cell-based. On the procedure: (§1) KATO-III cells (1.25×10^6 cells) were treated with 25 ng/mL recombinant human IFN-γ. […] Three days later, cells and supernatants were separated by centrifugation. The supernatants were used as conditioned medium. The conditioned medium was used for incubation of human PBMCs or NK cells (section 2.4.2), and measurement of Kyn and Trp (section 2.4.4).
(§2) NK cells were isolated from human PBMCs using NK isolation kit (Miltenyi Biotec, Cat. No. 130-092-657) and autoMACS instrument. Human PBMCs or NK cells were cultured in the conditioned medium (section 2.4.1) in a CO2 incubator. After 7 days, cells were harvested and counted, and used as effector cells. […] The radioactivity was counted with a microplate scintillation counter (TopCount NXT, PerkinElmer).
(§3) The percentage of cytotoxicity was calculated according to the following formula: […]
(§4) E is the experimental released radioactivity (cpm), S is the mean of spontaneous released radioactivity (cpm) by adding the assay medium instead of effector cells and antibody, and M is the mean of maximum released radioactivity (cpm) by adding 10 vol % Triton™ X-100 (Sigma-Aldrich, Cat. No. T9284-100ML) instead of effector cells and antibody. […]

The next data set has as its system HH cells. The experiment in a line: ADCC of mogamulizumab against HH cells by human PBMCs pre-incubated in conditioned medium. The class given is cell-based. On the procedure: as §1, §2, §3, §4
The next data set has as its system SK-BR-3 cells. Briefly: ADCC of trastuzumab against SK-BR-3 cells by human PBMCs pre-incubated in conditioned medium. In kind it is cell-based. The note with it: human PBMCs pre-incubated 7 days in conditioned medium of KATO-III + IFN-γ + 100 nmol/L compound. On the procedure:
as §1
(§5) NK cells were isolated from human PBMCs using NK isolation kit (Miltenyi Biotec, Cat. No. 130-092-657) and autoMACS instrument. Human PBMCs or NK cells were cultured in the conditioned medium (section 2.4.1) in a CO2 incubator. After 7 days, cells were harvested and counted, and used as effector cells. PBMCs and NK cells used as effector cells were suspended in the assay medium (RPMI1640 containing 10 vol % heat-inactivated fetal bovine serum and 1 vol % Penicillin-Streptomycin) to 5×10^6 cells/mL (PBMCs) or 4×10^5 cells/mL (NK cells). TL-Om1 cells, HH cells, SK-BR-3 cells, Raji cells or A431 cells (1×10^6 cells/each cell line) were labeled with 1.85 MBq of Na2^51CrO4 (PerkinElmer) for over 1 hour at 37° C. in a CO2 incubator. The cells were washed 3 times with assay medium. The radiolabeled cells used as target cells were suspended in 5 mL of the assay medium to 2×10^5 cells/mL. […]

The test system of the next data set is Raji cells. The experiment in a line: ADCC of rituximab against Raji cells by human PBMCs pre-incubated in conditioned medium. The class given is cell-based. As to conditions: human PBMCs pre-incubated 7 days in conditioned medium of KATO-III + IFN-γ + 100 nmol/L compound. How it is done: as §1, §5
In another data set the test system is A431 cells. The experiment in a line: ADCC of cetuximab against A431 cells by human PBMCs pre-incubated in conditioned medium. The note with it: human PBMCs pre-incubated 7 days in conditioned medium of KATO-III + IFN-γ + 100 nmol/L compound. The class given is cell-based. On the procedure:
as §1, §5

The test system of data set [2] is TL-Om1 cells. The experiment in a line: ADCC of mogamulizumab against TL-Om1 cells by purified human NK cells pre-incubated in conditioned medium. The class given is cell-based. On the procedure:
as §1, §2, §3, §4

For data set [3], the system named is TL-Om1 cells. The experiment in a line: ADCC of mogamulizumab against TL-Om1 cells by human PBMCs pre-incubated in medium containing the compound itself. In kind it is cell-based. As to conditions: human PBMCs pre-incubated in medium containing 100 nmol/L compound for 7 days. How it is done: NK cells were isolated from human PBMCs using NK isolation kit (Miltenyi Biotec, Cat. No. 130-092-657) and autoMACS instrument. Human PBMCs or NK cells were cultured in the conditioned medium (section 2.4.1) in a CO2 incubator. After 7 days, cells were harvested and counted, and used as effector cells. PBMCs and NK cells used as effector cells were suspended in the assay medium (RPMI1640 containing 10 vol % heat-inactivated fetal bovine serum and 1 vol % Penicillin-Streptomycin) to 5×10^6 cells/mL (PBMCs) or 4×10^5 cells/mL (NK cells). TL-Om1 cells, HH cells, SK-BR-3 cells, Raji cells or A431 cells (1×10^6 cells/each cell line) were labeled with 1.85 MBq of Na2^51CrO4 (PerkinElmer) for over 1 hour at 37° C. in a CO2 incubator. The cells were washed 3 times with assay medium. The radiolabeled cells used as target cells were suspended in 5 mL of the assay medium to 2×10^5 cells/mL. […] Fifty μL of the target cells (1×10^4 cells) were plated into 96-well round bottomed culture plates and mixed with 50 μL of antibody dilutions prepared as described above and 50 μL of the effector cells (2.5×10^5 cells). The culture plates were briefly centrifuged at 4° C. and incubated at 37° C. in a CO2 incubator for about 4 hours. […] The radioactivity was counted with a microplate scintillation counter (TopCount NXT, PerkinElmer).

The next data set concerns SKOV3 cells. The experiment in a line: Cytotoxicity of PBMCs against SKOV3 cells with or without Antibody C1 (51Cr release). In kind it is cell-based, human. The note with it: PBMCs pre-incubated 7 days in conditioned medium of SKOV3 + 50 ng/mL IFNγ + 100 nmol/L compound, vs conditioned medium DMSO. How it is done: The supernatants of each culture were used as the conditioned medium for pre-incubation of PBMCs.
SKOV3 cells were detached from culture flasks by TrypLE Express (GIBCO). The live cells were adjusted to 1.0×10^6 cells by the ADCC assay medium [RPMI1640 without phenol red (GIBCO) with 10 vol % of dialyzed and heat-inactivated FCS(GIBCO)]. Then, the cells were labeled with approx. 3.7 MBq of Na2^51CrO4 (PerkinElmer) for over 1 hour at 37° C. in a CO2 incubator. The cells were washed three times, and adjusted to 2.0×10^5 cells/mL (1×10^4 cells/50 μL) as the target cells using the ADCC assay medium.
Human PBMCs were cultured in 25 mL of the conditioned medium for 7 days. […]
The cytotoxicity was quantified by measurement of radioactivity in the supernatant of each assay well. […]
Total, T spo, M, or Assay sample was defined and prepared as follows. • Total: Target cell total radioactivity control. This sample was prepared by mixing 50 μL of target cell, 15 μL of detergent (10×Lysis Solution, Promega), and 85 μL of the ADCC assay medium. • T spo: Target cell spontaneous radioactivity control. […]
Each sample was prepared in triplicate. […] The radioactivity (cpm) was counted with a microplate scintillation counter (TopCount NXT, PerkinElmer).
The cytotoxicity (%) was calculated by the following equations using the cpm of each well. […]

Data set [4] has as its system TL-Om1 cells. Briefly: ADCC of mogamulizumab against TL-Om1 cells by human PBMCs pre-incubated in conditioned medium of shRNA KATO-III cells. The class given is cell-based. As to conditions: PBMCs pre-incubated in conditioned medium 3 (parent + IFN-γ) or 4 (NegaCTRL shRNA + IFN-γ) compared with conditioned medium 1 or 2. On the procedure:
Parental KATO-III or KATO-III cells stably expressing IDO1 shRNA or NegaCTRL shRNA (1.25×10^6 cells) were treated with 25 ng/mL recombinant human IFN-γ. Cells were incubated in a CO2 incubator. Three days later, cells and supernatants were separated by centrifugation. The supernatants were used as conditioned medium. The conditioned medium was used for incubation of human PBMCs (Section 7.4.5), and measurement of Kyn and Trp (Section 7.4.7).
Human PBMCs were cultured in each conditioned medium (Section 7.4.4) in a CO2 incubator. After 7 days, cells were harvested and counted, and used as effector cells. PBMCs used as effector cells were suspended in the assay medium (RPMI1640 containing 10 vol % heat-inactivated fetal bovine serum and 1 vol % Penicillin-Streptomycin) to 5×10^6 cells/mL. […] The radioactivity was counted with a microplate scintillation counter (TopCount NXT, PerkinElmer).
as §3, §4

Consider `NS(=O)(=O)NCCNc1nonc1C(=NO)Nc1ccc(F)c(Br)c1` [Compound B1, 4-({2-[(aminosulfonyl)amino]ethyl}amino)-N-(3-bromo-4-fluorophenyl)-N′-hydroxy-1,2,5-oxadiazole-3-carboximidamide], for which the “effect on the attenuation of ADCC of mogamulizumab against TL-Om1 cells” value with TL-Om1 cells [1] (human PBMCs (donor 1, donor 2) pre-incubated 7 days in conditioned medium of KATO-III + IFN-γ + 100 nmol/L compound) was “canceled the attenuation”. In addition, the “effect on the attenuation of ADCC of mogamulizumab against HH cells” value with HH cells (human PBMCs pre-incubated 7 days in conditioned medium of KATO-III + IFN-γ + 100 nmol/L compound) is recorded as “canceled the attenuation”. In addition, in the data set with SK-BR-3 cells, the “effect on the attenuation of ADCC of trastuzumab against SK-BR-3 cells” value is recorded as “canceled the attenuation”. For the same molecule, the “effect on the attenuation of ADCC of rituximab against Raji cells” value in the data set with Raji cells is given as “canceled the attenuation”. For the same molecule, the “effect on the attenuation of ADCC of cetuximab against A431 cells” value in the data set with A431 cells was “canceled the attenuation”. The “effect on the attenuation of ADCC of mogamulizumab by NK cells” value in the data set with TL-Om1 cells [2] (purified human NK cells pre-incubated in conditioned medium of KATO-III + IFN-γ + 100 nmol/L compound, TL-Om1 target cells) is reported as “canceled”. Moreover, the “effect of the compound itself on ADCC of mogamulizumab” value in the data set on TL-Om1 cells [3] was “did not influence”. Besides, the “cytotoxicity without Antibody C1 (natural killing activity) of PBMCs against SKOV3 cells” value in the data set on SKOV3 cells is “higher”. Further, in the data set with SKOV3 cells (Antibody C1 0.033-333 ng/mL), the “cytotoxicity of PBMCs against SKOV3 cells in the presence of Antibody C1” value is on record as “higher”.

B1: mogamulizumab: humanized anti CCR4 monoclonal antibody (antibody, chains of the INN, looked up, V domains shown)
VH: EVQLVESGGDLVQPGRSLRLSCAASGFIFSNYGMSWVRQAPGKGLEWVATISSASTYSYYPDSVKGRFTISRDNAKNSLYLQMNSLRVEDTALYYCGRHSDGNFAFGYWGQGTLVTVSS
VL: DVLMTQSPLSLPVTPGEPASISCRSSRNIVHINGDTYLEWYLQKPGQSPQLLIYKVSNRFSGVPDRFSGSGSGTDFTLKISRVEAEDVGVYYCFQGSLLPWTFGQGTKVEIK
On to B1, for which the “ADCC against TL-Om1 cells” value in the data set with TL-Om1 cells [1] (PBMCs (donor 1, donor 2) pre-incubated in conditioned medium 2 (KATO-III + IFN-γ) compared with conditioned medium 1) is recorded as “attenuated”; in the data set on TL-Om1 cells [4], “attenuated”. The “ADCC against HH cells” value in the data set on HH cells (PBMCs pre-incubated in conditioned medium 2 (KATO-III + IFN-γ)) is given as “attenuated”. In addition, the “ADCC by NK cells against TL-Om1 cells” value in the data set on TL-Om1 cells [2] (purified NK cells pre-incubated in conditioned medium 2 (KATO-III + IFN-γ)) was “attenuated”.
